Test results as given in paper PMC10879502, “Linking ATP and allosteric sites to achieve superadditive binding with bivalent EGFR kinase inhibitors” (Communications Chemistry, 2024).
Where “and” joins values, the source holds several entries; their conditions need not be identical. Equal entries are not always repeated. Where two headings read alike, the source gives them in different places. One block for each molecule: values may come before it.

Assays:
[1] = biological target: T1, EGFR L858R (LR) kinase domain (Homo sapiens, UniProt P00533, L858R); assay: HTRF KinEASE-TK kinase activity assay; assay type: biochemical
T1 construct: The EGFR kinase domain (residues 696–1022) was cloned into pTriEx; 6xHis (N, cleaved yes); GST (N, cleaved yes); made in house; host or cells: SF9 insect cells, baculovirus

[2] = biological target: T2, JAK3(JH1domain-catalytic) (Homo sapiens, UniProt P52333); assay: KINOMEscan; assay type: binding; settings: 1 μM
T2 construct: JAK3(JH1domain-catalytic); purchased Eurofins DiscoverX (KINOMEscan)

MYLK2 = biological target: T3, MYLK2 (Homo sapiens, UniProt Q9H1R3); assay: KINOMEscan; assay type: binding; settings: 1 μM
T3 construct: purchased Eurofins DiscoverX Corporation

STK35 = STK35 (Homo sapiens, UniProt Q8TDR2); assay: KINOMEscan; assay type: binding; settings: 1 μM
EPHB4 = EPHB4 (Homo sapiens, UniProt P54760); assay: KINOMEscan; assay type: binding; settings: 1 μM
PIP5K2C = PIP5K2C (Homo sapiens, UniProt Q8TBX8); assay: KINOMEscan; assay type: binding; settings: 1 μM
Sequence of PIP5K2C (Q8TBX8 whole entry): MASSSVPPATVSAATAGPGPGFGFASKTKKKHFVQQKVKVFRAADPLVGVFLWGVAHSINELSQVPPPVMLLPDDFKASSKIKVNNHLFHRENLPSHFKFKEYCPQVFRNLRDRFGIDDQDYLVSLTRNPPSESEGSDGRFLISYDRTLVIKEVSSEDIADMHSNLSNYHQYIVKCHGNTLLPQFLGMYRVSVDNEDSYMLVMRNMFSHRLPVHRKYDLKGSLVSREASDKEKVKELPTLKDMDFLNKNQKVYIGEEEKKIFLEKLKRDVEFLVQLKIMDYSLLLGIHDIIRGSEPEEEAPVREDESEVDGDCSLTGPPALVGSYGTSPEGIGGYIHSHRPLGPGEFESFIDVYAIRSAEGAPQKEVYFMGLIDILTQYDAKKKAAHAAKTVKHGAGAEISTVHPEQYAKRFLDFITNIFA

CSF1R-autoinhibited = CSF1R-autoinhibited (Homo sapiens, UniProt P07333); assay: KINOMEscan; assay type: binding; settings: 1 μM
Sequence of CSF1R-autoinhibited (P07333 539-972 limits assumed): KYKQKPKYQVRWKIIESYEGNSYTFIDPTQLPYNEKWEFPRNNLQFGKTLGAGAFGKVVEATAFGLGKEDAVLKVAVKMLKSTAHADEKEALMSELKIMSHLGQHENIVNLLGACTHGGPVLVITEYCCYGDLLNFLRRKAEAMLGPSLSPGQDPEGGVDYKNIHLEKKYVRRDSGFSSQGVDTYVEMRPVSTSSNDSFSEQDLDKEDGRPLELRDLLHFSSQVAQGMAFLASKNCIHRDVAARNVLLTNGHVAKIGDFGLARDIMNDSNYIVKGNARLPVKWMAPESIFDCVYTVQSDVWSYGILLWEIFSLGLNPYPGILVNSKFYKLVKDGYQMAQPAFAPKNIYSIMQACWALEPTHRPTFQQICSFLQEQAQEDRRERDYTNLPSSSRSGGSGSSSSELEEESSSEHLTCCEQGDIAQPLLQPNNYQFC

MUSK = biological target: T4, MUSK (Homo sapiens, UniProt O15146); assay: KINOMEscan; assay type: binding; settings: 1 μM
T4 construct: purchased Eurofins DiscoverX Corporation

MET(M1250T) = biological target: T5, MET(M1250T) (Homo sapiens, UniProt P08581, M1250T); assay: KINOMEscan; assay type: binding; settings: 1 μM
T5 construct: purchased Eurofins DiscoverX Corporation

FGFR3(G697C) = FGFR3(G697C) (Homo sapiens, UniProt P22607, G697C); assay: KINOMEscan; assay type: binding; settings: 1 μM
NDR2 = biological target: T6, NDR2 (Homo sapiens, UniProt Q9Y2H1); assay: KINOMEscan; assay type: binding; settings: 1 μM
T6 construct: purchased Eurofins DiscoverX Corporation

TEC = biological target: T7, TEC (Homo sapiens, UniProt P42680); assay: KINOMEscan; assay type: binding; settings: 1 μM
T7 construct: purchased Eurofins DiscoverX Corporation

EIF2AK1 = EIF2AK1 (Homo sapiens, UniProt Q9BQI3); assay: KINOMEscan; assay type: binding; settings: 1 μM
Sequence of EIF2AK1 (Q9BQI3 whole entry): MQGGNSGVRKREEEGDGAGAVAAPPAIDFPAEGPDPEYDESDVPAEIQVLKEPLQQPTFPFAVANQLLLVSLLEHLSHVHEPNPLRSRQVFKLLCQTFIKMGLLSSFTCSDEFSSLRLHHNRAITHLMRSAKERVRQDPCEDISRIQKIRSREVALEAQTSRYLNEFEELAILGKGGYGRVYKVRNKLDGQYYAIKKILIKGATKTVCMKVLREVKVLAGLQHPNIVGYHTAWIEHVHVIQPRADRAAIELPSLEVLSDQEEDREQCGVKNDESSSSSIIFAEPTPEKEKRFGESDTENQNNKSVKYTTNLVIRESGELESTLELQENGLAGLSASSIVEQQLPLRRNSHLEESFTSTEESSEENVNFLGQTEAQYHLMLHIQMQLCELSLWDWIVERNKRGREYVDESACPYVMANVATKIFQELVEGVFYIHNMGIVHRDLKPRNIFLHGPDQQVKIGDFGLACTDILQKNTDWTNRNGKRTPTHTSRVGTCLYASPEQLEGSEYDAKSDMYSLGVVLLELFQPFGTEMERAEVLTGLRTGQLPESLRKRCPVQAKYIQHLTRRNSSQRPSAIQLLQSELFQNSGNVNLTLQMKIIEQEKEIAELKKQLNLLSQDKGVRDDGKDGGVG

EGFR(L747-S752del+P753S) = EGFR(L747-S752del+P753S) (Homo sapiens, UniProt P00533, DEL747-752/P753S); assay: KINOMEscan; assay type: binding; settings: 1 μM
VPS34 = VPS34 (Homo sapiens, UniProt Q8NEB9); assay: KINOMEscan; assay type: binding; settings: 1 μM
Sequence of VPS34 (Q8NEB9 whole entry): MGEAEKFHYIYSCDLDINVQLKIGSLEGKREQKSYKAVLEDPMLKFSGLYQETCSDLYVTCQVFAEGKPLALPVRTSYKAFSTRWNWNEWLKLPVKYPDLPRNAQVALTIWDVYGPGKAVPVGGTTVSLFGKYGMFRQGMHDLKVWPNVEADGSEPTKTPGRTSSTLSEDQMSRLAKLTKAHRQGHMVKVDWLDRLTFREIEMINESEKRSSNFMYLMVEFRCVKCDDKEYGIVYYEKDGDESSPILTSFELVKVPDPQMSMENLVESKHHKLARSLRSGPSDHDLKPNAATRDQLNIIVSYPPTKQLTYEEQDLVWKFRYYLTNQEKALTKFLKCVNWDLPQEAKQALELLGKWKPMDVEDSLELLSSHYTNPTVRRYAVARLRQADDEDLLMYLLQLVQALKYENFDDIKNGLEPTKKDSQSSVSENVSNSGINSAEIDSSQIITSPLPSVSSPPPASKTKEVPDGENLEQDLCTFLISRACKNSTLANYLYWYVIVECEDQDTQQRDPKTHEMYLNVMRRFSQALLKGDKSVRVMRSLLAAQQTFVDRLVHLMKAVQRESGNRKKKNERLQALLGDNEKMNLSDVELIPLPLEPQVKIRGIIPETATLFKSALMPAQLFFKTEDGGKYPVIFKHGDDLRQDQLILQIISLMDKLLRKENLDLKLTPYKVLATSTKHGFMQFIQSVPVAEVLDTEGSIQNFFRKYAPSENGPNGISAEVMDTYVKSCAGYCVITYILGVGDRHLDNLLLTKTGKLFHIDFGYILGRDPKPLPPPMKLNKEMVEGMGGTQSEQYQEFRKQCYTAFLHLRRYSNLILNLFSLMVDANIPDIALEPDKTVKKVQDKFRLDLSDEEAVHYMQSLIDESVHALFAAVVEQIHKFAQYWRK

CAMK2D = biological target: T8, CAMK2D (Homo sapiens, UniProt Q13557); assay: KINOMEscan; assay type: binding; settings: 1 μM
T8 construct: purchased Eurofins DiscoverX Corporation (KINOMEscan)

ANKK1 = ANKK1 (Homo sapiens, UniProt Q8NFD2); assay: KINOMEscan; assay type: binding; settings: 1 μM
MYO3B = biological target: T9, MYO3B (Homo sapiens, UniProt Q8WXR4); assay: KINOMEscan; assay type: binding; settings: 1 μM
T9 construct: purchased Eurofins DiscoverX Corporation

CDK5 = CDK5 (Homo sapiens, UniProt Q00535); assay: KINOMEscan; assay type: binding; settings: 1 μM
GSK3B = biological target: T10, GSK3B (Homo sapiens, UniProt P49841); assay: KINOMEscan; assay type: binding; settings: 1 μM
T10 construct: purchased Eurofins DiscoverX Corporation

[3] = biological target: RPS6KA5(Kin.Dom.1-N-terminal) (Homo sapiens, UniProt O75582); assay: KINOMEscan; assay type: binding; settings: 1 μM
BUB1 = biological target: T11, BUB1 (Homo sapiens, UniProt O43683); assay: KINOMEscan; assay type: binding; settings: 1 μM
T11 construct: purchased Eurofins DiscoverX Corporation (KINOMEscan)

CASK = biological target: T12, CASK (Homo sapiens, UniProt O14936); assay: KINOMEscan; assay type: binding; settings: 1 μM
T12 construct: purchased Eurofins DiscoverX Corporation (KINOMEscan)
T12 sequence (O14936 whole entry): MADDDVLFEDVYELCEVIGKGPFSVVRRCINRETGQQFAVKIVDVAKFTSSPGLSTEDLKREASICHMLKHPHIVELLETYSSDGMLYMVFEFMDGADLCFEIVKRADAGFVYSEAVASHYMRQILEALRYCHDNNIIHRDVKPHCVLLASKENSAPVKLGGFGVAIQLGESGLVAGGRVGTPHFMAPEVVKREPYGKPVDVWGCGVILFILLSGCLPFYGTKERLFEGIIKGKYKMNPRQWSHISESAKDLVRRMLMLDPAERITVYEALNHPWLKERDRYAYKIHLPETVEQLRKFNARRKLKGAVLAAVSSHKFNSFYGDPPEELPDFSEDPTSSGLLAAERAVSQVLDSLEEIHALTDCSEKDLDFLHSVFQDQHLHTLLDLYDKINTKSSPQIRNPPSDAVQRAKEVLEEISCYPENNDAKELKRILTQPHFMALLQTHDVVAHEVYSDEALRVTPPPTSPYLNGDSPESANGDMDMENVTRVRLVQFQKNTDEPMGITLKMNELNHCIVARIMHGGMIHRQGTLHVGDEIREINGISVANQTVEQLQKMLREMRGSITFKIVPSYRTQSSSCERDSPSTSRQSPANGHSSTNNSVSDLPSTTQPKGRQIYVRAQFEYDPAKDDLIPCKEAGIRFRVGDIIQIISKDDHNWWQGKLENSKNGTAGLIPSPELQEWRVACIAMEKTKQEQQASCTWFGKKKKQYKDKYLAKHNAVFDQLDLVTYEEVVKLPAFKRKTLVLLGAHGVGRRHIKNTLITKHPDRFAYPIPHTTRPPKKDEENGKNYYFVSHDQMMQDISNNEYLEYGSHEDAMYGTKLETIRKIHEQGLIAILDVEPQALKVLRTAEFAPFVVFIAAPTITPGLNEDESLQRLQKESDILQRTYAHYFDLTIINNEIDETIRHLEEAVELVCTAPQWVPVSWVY

[4] = biological target: T13, JAK1(JH2domain-pseudokinase) (Homo sapiens, UniProt P23458); assay: KINOMEscan; assay type: binding; settings: 1 μM
T13 construct: JAK1(JH2domain-pseudokinase); purchased Eurofins DiscoverX (KINOMEscan)

RET(V804M) = RET(V804M) (Homo sapiens, UniProt P07949, V804M); assay: KINOMEscan; assay type: binding; settings: 1 μM
FLT3(D835V) = FLT3(D835V) (Homo sapiens, UniProt P36888, D835V); assay: KINOMEscan; assay type: binding; settings: 1 μM
JNK3 = biological target: T14, JNK3 (Homo sapiens, UniProt P53779); assay: KINOMEscan; assay type: binding; settings: 1 μM
T14 construct: purchased Eurofins DiscoverX (KINOMEscan)

CLK4 = CLK4 (Homo sapiens, UniProt Q9HAZ1); assay: KINOMEscan; assay type: binding; settings: 1 μM
EGFR(L747-T751del+Sins) = assay: KINOMEscan; assay type: binding; settings: 1 μM
FGFR4 = FGFR4 (Homo sapiens, UniProt P22455); assay: KINOMEscan; assay type: binding; settings: 1 μM
Sequence of FGFR4 (P22455 22-802): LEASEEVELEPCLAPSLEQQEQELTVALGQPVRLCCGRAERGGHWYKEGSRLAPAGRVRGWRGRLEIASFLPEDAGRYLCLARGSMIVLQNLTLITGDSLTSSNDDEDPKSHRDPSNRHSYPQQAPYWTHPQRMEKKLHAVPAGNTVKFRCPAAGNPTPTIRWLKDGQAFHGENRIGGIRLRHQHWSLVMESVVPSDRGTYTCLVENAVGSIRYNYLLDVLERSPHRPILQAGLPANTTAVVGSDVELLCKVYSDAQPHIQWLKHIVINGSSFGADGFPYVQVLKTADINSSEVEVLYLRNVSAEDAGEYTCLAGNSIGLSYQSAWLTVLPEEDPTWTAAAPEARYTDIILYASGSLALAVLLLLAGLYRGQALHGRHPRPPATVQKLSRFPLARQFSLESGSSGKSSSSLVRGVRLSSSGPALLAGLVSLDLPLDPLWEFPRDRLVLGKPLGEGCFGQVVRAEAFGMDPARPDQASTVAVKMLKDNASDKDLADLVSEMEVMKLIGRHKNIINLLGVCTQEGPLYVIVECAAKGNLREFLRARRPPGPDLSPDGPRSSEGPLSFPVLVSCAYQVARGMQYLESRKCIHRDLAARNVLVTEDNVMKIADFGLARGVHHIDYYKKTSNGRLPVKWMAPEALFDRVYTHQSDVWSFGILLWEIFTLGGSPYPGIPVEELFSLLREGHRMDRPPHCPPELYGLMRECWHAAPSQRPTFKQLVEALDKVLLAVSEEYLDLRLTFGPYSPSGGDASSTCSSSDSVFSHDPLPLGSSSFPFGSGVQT

[5] = biological target: TYK2(JH1domain-catalytic) (Homo sapiens, UniProt P29597); assay: KINOMEscan; assay type: binding; settings: 1 μM
[6] = biological target: T15, ABL1(T315I)-phosphorylated (Homo sapiens, UniProt P00519, T315I); assay: KINOMEscan; assay type: binding; settings: 1 μM
T15 construct: purchased Eurofins DiscoverX Corporation

p38-beta = p38-beta (Homo sapiens, UniProt Q15759); assay: KINOMEscan; assay type: binding; settings: 1 μM
FYN = biological target: T16, FYN (Homo sapiens, UniProt P06241); assay: KINOMEscan; assay type: binding; settings: 1 μM
T16 construct: purchased Eurofins DiscoverX Corporation

KIT(L576P) = biological target: T17, KIT(L576P) (Homo sapiens, UniProt P10721, L576P); assay: KINOMEscan; assay type: binding; settings: 1 μM
T17 construct: purchased Eurofins DiscoverX (KINOMEscan)
T17 sequence (P10721 26-976 L576P): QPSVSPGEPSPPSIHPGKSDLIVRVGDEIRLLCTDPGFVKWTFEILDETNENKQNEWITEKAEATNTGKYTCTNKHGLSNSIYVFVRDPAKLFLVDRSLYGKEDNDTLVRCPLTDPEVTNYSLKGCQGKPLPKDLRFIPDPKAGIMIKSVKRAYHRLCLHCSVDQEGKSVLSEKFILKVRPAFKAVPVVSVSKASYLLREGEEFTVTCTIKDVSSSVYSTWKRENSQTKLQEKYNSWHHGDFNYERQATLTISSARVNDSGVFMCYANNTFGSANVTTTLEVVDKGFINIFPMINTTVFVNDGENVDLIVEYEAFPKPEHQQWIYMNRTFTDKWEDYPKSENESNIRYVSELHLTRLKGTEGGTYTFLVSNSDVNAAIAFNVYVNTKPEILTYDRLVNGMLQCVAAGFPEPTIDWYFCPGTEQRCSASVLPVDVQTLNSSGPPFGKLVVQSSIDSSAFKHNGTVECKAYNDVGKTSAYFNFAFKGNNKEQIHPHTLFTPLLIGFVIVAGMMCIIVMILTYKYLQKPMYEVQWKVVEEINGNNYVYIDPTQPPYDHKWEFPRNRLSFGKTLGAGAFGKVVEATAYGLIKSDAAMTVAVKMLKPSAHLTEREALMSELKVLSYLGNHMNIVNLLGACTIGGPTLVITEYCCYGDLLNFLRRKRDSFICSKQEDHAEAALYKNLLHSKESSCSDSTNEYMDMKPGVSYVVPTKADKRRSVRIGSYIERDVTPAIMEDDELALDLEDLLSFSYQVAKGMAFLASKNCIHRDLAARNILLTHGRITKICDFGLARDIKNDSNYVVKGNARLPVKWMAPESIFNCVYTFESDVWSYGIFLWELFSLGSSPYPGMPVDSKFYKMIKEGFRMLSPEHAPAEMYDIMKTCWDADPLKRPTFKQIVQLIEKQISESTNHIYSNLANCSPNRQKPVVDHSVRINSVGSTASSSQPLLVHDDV

ERBB2 = ERBB2 (Homo sapiens, UniProt P04626); assay: KINOMEscan; assay type: binding; settings: 1 μM
PRKCE = PRKCE (Homo sapiens, UniProt Q02156); assay: KINOMEscan; assay type: binding; settings: 1 μM

activity ([1]; LR, [Inhibitor] 1.3e-5 nM, read-out: percent inhibition): 93.5% and 92.2% and 100%
activity ([1]; LR, [Inhibitor] 3.18e-5 nM, read-out: percent inhibition): 90.3% (2×) and 95.9%
activity ([1]; LR, [Inhibitor] 7.78e-5 nM, read-out: percent inhibition): 71% and 67.2% and 70.8%
activity at 190.4 fM ([1]; LR, [Inhibitor] 0.000190441 nM, read-out: percent inhibition): 39.1%
activity at 466 fM ([1]; LR, [Inhibitor] 0.000465979 nM, read-out: percent inhibition): 22.7%
activity at 1.14 pM ([1]; LR, [Inhibitor] 0.00114018 nM, read-out: percent inhibition): 13.5%
activity at 2.79 pM ([1]; LR, [Inhibitor] 0.00278983 nM, read-out: percent inhibition): 8.55%
activity at 6.826 pM ([1]; LR, [Inhibitor] 0.00682626 nM, read-out: percent inhibition): 4.28%
activity at 16.7 pM ([1]; LR, [Inhibitor] 0.0167028 nM, read-out: percent inhibition): 1.88%
IC50 ([1]; enzyme 0.1 nM, ATP 100 µM, read-out: Biochemical EGFR IC50, LR): 1.5 ± 0.1 nM
SMILES: CSc1nc(-c2cccc(NC(=O)c3cccc4c3NC(=O)c3ccccc3N4)c2)c(-c2ccnc(NC(C)=O)c2)[nH]1 [Compound 2]

SMILES: C=CC(=O)Nc1ccc(OC)c(Nc2cc(-c3[nH]c(CC)nc3-c3cccc(NC(=O)c4cccc5c4NC(=O)c4ccccc4N5)c3)ccn2)c1 [Compound 4]
POC [2]: 100% of control
POC (MYLK2): 84% of control
POC (STK35): 69% of control
POC (EPHB4): 100% of control
POC (PIP5K2C): 66% of control
POC (CSF1R-autoinhibited): 69% of control
POC (MUSK): 100% of control
POC (MET(M1250T)): 89% of control
POC (FGFR3(G697C)): 100% of control
POC (NDR2): 77% of control
POC (TEC): 45% of control
POC (EIF2AK1): 75% of control
POC (EGFR(L747-S752del+P753S)): 16% of control
POC (VPS34): 84% of control
POC (CAMK2D): 88% of control
POC (ANKK1): 87% of control
POC (MYO3B): 31% of control
POC (CDK5): 100% of control
POC (GSK3B): 100% of control
POC [3]: 83% of control
POC (BUB1): 100% of control
POC (CASK): 97% of control
POC [4]: 83% of control
POC (RET(V804M)): 91% of control
POC (FLT3(D835V)): 100% of control
POC (JNK3): 53% of control
POC (CLK4): 100% of control
POC (EGFR(L747-T751del+Sins)): 7.6% of control
POC (FGFR4): 100% of control
POC [5]: 91% of control
POC [6]: 100% of control
POC (p38-beta): 59% of control
POC (FYN): 64% of control
POC (KIT(L576P)): 84% of control
POC (ERBB2): 18% of control
POC (PRKCE): 100% of control
